US11639352B2, “Benzothiazole compounds for the treatment of autoimmune diseases” (Hoffmann-La Roche Inc., priority 2018, dated 2023)

What follows are molecules tested against T1, human TLR8 (Homo sapiens, UniProt Q9NR97) (assay: HEK293-Blue-hTLR-8 cells assay (SEAP reporter, R848 stimulation)). Conditions: HEK293-Blue-hTLR8 cells, R848 ligand, 20 hrs incubation, antagonist.
T1 sequence (Q9NR97 27-1041): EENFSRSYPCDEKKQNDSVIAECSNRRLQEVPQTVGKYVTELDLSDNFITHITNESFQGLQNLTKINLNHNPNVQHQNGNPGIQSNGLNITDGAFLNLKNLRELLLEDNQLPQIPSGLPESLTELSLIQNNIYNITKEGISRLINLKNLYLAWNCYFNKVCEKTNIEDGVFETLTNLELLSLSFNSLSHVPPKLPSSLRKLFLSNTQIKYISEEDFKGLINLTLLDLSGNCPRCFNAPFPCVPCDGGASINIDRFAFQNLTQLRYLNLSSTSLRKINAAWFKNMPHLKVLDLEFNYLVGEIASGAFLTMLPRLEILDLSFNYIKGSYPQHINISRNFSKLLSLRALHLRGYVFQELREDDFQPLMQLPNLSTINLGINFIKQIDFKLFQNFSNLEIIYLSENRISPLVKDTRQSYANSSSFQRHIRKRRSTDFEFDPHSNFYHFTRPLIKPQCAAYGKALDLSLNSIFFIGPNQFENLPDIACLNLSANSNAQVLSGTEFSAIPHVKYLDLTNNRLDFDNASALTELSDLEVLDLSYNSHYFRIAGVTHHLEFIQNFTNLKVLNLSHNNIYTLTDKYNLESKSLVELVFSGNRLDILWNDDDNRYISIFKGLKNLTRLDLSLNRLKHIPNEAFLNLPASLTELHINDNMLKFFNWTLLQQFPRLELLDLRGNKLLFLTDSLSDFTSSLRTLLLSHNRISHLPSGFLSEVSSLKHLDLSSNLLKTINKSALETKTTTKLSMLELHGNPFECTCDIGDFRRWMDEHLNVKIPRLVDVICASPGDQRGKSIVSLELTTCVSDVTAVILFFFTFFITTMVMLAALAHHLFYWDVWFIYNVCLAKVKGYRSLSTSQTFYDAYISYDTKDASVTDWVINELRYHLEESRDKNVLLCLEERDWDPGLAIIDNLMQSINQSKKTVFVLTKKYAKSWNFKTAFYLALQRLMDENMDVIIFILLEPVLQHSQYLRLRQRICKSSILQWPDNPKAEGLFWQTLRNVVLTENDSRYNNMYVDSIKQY
Type: cell-based
Protocol: The following tests were carried out in order to determine the activity of the compounds of formula (I) in HEK293-Blue-hTLR-7/8/9 cells assay.
HEK293-Blue-hTLR-8 Cells Assay:
A stable HEK293-Blue-hTLR-8 cell line was purchased from InvivoGen (Cat. #: hkb-htlr8, San Diego, Calif., USA). These cells were originally designed for studying the stimulation of human TLR8 by monitoring the activation of NF-κB. A SEAP (secreted embryonic alkaline phosphatase) reporter gene was placed under the control of the IFN-β minimal promoter fused to five NF-κB and AP-1-binding sites. The SEAP was induced by activating NF-κB and AP-1 via stimulating HEK-Blue hTLR8 cells with TLR8 ligands. Therefore the reporter expression was declined by TLR8 antagonist under the stimulation of a ligand, such as R848, for incubation of 20 hrs. The cell culture supernatant SEAP reporter activity was determined using QUANTI-Blue™ kit (Cat. #: rep-qb1, Invivogen, San Diego, Calif., USA) at a wavelength of 640 nm, a detection medium that turns purple or blue in the presence of alkaline phosphatase.
HEK293-Blue-hTLR8 cells were incubated at a density of 250,000˜450,000 cells/mL in a volume of 170 μL in a 96-well plate in Dulbecco's Modified Eagle's medium (DMEM) containing 4.5 g/L glucose, 50 U/mL penicillin, […], […], 2 mM L-glutamine, 10% (v/v) heat-inactivated fetal bovine serum with addition of 20 μL test compound in a serial dilution in the presence of final DMSO at 1% and 10 μL of 60 uM R848 in above DMEM, perform incubation under 37° C. in a CO2 incubator for 20 hrs. Then 20 μL of the supernatant from each well was incubated with 180 μL Quanti-blue substrate solution at 37° C. for 2 hrs and the absorbance was read at 620˜655 nm using a spectrophotometer. The signalling pathway that TLR8 activation leads to downstream NF-κB activation has been widely accepted, and therefore similar reporter assay was modified for evaluating TLR8 antagonist.
Molecule `C[C@@H]1CN(c2ccc(C#N)c3ncsc23)C[C@H](CN2CCC3(CCCNC3)C2)O1` (stereo partly drawn) [Example 1, 7-[(2S,6R)-2-(2,9-diazaspiro[4.5]decan-2-ylmethyl)-6-methyl-morpholin-4-yl]-1,3-benzothiazole-4-carbonitrile] has an IC50 of under 3 nM. With `C[C@@H]1CN(c2ccc(C#N)c3ncsc23)C[C@H](CN2CCC(N)CC2)O1` [Example 2, 7-[(2S,6R)-2-[(4-amino-1-piperidyl)methyl]-6-methyl-morpholin-4-yl]-1,3-benzothiazole-4-carbonitrile] the IC50 was 5 nM. `C[C@@H]1CN(c2ccc(C#N)c3ncsc23)C[C@H](CN2CCC3(CCCNC3)CC2)O1` [Example 3, 7-[(2S,6R)-2-(2,9-diazaspiro[5.5]undecan-9-ylmethyl)-6-methyl-morpholin-4-yl]-1,3-benzothiazole-4-carbonitrile] showed an IC50 of 12 nM. For `C[C@@H]1CN(c2ccc(C#N)c3ncsc23)C[C@H](CN2CC3(CCCNC3)C2)O1` [Example 4, 7-[(2S,6R)-2-(2,8-diazaspiro[3.5]nonan-2-ylmethyl)-6-methyl-morpholin-4-yl]-1,3-benzothiazole-4-carbonitrile], the IC50 was 14 nM. `C[C@@H]1CN(c2ccc(C#N)c3ncsc23)C[C@H](CN2CCC3(CCNCC3)CC2)O1` [Example 5, 7-[(2S,6R)-2-(3,9-diazaspiro[5.5]undecan-3-ylmethyl)-6-methyl-morpholin-4-yl]-1,3-benzothiazole-4-carbonitrile] was tested, and the IC50 was 107 nM. For `C[C@@H]1CN(c2ccc(C#N)c3ncsc23)C[C@H](CN2CCC3(CCNC3)CC2)O1` [Example 6, 7-[(2S,6R)-2-(2,8-diazaspiro[4.5]decan-8-ylmethyl)-6-methyl-morpholin-4-yl]-1,3-benzothiazole-4-carbonitrile], the IC50 was 22 nM. With `C[C@@H]1CN(c2ccc(C#N)c3ncsc23)C[C@H](CN2CCC(N3CCCCC3)CC2)O1` [Example 7, 7-[(2R,6S)-2-methyl-6-[[4-(1-piperidyl)-1-piperidyl]methyl]morpholin-4-yl]-1,3-benzothiazole-4-carbonitrile] the IC50 was under 3 nM. `C[C@@H]1CN(c2ccc(C#N)c3ncsc23)C[C@H](CN2[C@@H]3CC[C@H]2C[C@@H](N)C3)O1` [Example 8, Endo-7-[(2S,6R)-2-[[(1R,5S)-3-amino-8-azabicyclo[3.2.1]octan-8-yl]methyl]-6-methyl-morpholin-4-yl]-1,3-benzothiazole-4-carbonitrile] showed an IC50 of under 3 nM. `C[C@@H]1CN(c2ccc(C#N)c3ncsc23)C[C@H](CN2[C@@H]3CC[C@H]2C[C@H](N)C3)O1` [Example 9, Exo-7-[(2S,6R)-2-[[(1S,5R)-3-amino-8-azabicyclo[3.2.1]octan-8-yl]methyl]-6-methyl-morpholin-4-yl]-1,3-benzothiazole-4-carbonitrile] was tested, and the IC50 was 8 nM. With `C[C@@H]1CN(c2ccc(C#N)c3ncsc23)C[C@H](CN2CCC3(CCCN(C)C3)CC2)O1` [Example 10, 7-[(2R,6S)-2-methyl-6-[(2-methyl-2,9-diazaspiro[5.5]undecan-9-yl)methyl]morpholin-4-yl]-1,3-benzothiazole-4-carbonitrile] the IC50 was under 3 nM. `C[C@@H]1CN(c2ccc(C#N)c3ncsc23)C[C@H](C(=O)NC2CCN(C)CC2)O1` [Example 11, (2R,6R)-4-(4-cyano-1,3-benzothiazol-7-yl)-6-methyl-N-(1-methyl-4-piperidyl)morpholine-2-carboxamide] gave an IC50 of under 3 nM. For `C[C@@H]1CN(c2ccc(C#N)c3ncsc23)C[C@H](C(=O)NCC2CN(C)CCO2)O1` (stereo partly drawn) [Example 12, (2R,6R)-4-(4-cyano-1,3-benzothiazol-7-yl)-6-methyl-N-[(4-methylmorpholin-2-yl)methyl]morpholine-2-carboxamide], the IC50 was under 3 nM.
